Patent publication US20210382037A1, “IDENTIFICATION AND USE OF CYTOTOXIC T LYMPHOCYTE (CTL) ANTIGEN-SPECIFIC TARGET CELL KILLING ENHANCER AGENTS” (DANA-FARBER CANCER INSTITUTE, INC., priority 2017, published 2021)

Assays:
[1] = test system: ID8-lucOS cells (OVA-expressing ID8 target cells) co-cultured with OT-I CD8+ T cells; assay: OT-I CTL assay, high-throughput compound screen and dose-response validation; format: cell-based, mouse; details: for effect on OT-I T cell killing of ID8-lucOS target cells, dose-response validation: dose-response curves; for effect on OT-I T cell killing of ID8-lucOS target cells, dose-response validation / effect on OT-I T cell-mediated target cell lysis (normalized firefly/renilla luciferase ratio relative to DMSO): 48 hr; for effect on OT-I T cell-mediated target cell lysis (normalized firefly/renilla luciferase ratio relative to DMSO): pilot screen, 1 μM, duplicate plates
Method: 10,000 ID8-lucOS and 10,000 ID8-rluc cells were plated in 1004, of cell culture media (DMEM+10% FBS+pen/strep) in solid white, flat-bottomed, tissue culture-treated 96-well plates (Thermo Fisher, Waltham, Mass.). Overnight-stimulated OT-I CD8^+ T cells were then added at the designated Effector:Target ratios with or without compounds in a total volume of 200 μL. Plates were incubated for 48 hr at 37° C. and 5% CO2. After 48 hr timepoint, 1004, of media was removed prior to dual-luciferase assay. Briefly: 504, of homemade Dual-Glo® luciferase buffer (Lu et al. Science 343: 305-309) was added to wells and incubated for 30 min before analysis of Firefly luminescence; then 504, of Dual-Glo® Stop & Glo® buffer was added, plates were incubated for 30 min, then analyzed for Renilla luminescence. An EnSpire plate reader (PerkinElmer, Waltham, Mass.) was used for quantification of luminescence. 203 compounds (listed above; details for LINCS kinase library can be found at lincs.hms.harvard.edu/db/sm/) were screened in high-throughput at 1 μM final concentration in duplicate, in 96-well plates in a first set that contained both OT-I CTLs and ID8 target cells and in a second set that contained ID8 target cells only. No compounds were placed in edge wells and all plates contained multiple DMSO control cells. Hits were calculated based on ΔΔCt method whereby ΔΔCt=(FLucDMSO/RLucDMSO)/(FLucCompound/RLucCompound) where values >1 were assessed as having augmented CTL killing, values ˜1 were assessed as having negligible immunomodulatory effect, and values <1 were assessed as having inhibited CTL killing. Hits from the high-throughput screen were validated with dose response curves using the indicated drug concentrations.
For development of the OT-I IO assay, the ID8 murine serous ovarian carcinoma cell line was utilized due to its constitutive expression of MHC class-I, MHC haplotype compatibility with C57BL/6J mice, and dramatic IFN-γ-induced upregulation of PD-L1 (FIG. 10A and FIG. 10B). ID8s were transduced with pLVX vectors to express either firefly luciferase and OVA model antigen (“lucOS”) or renilla luciferase and no model antigen (“rluc”) (FIG. 2A). Target ID8 cell lines were mixed at a 1:1 ratio and co-cultured with CD8+ T cells isolated from the spleens of OT-I TCR-transgenic mice; OT-I mice express transgenic TCRα-V2 and TCRβ-V5 genes such that all CD8+ T cell receptors recognize chicken ovalbumin residues 257-264 ([…]) in the context of H-2Kb (Hogquist et al., 1994 Cell, 76:17-27). Target cell-T cell cultures were incubated with compounds for 48 hr and then analyzed by dual-luciferase assay whereby changes in firefly signal relative to controls indicated modulation of T cell killing by compound treatment (FIG. 2B and FIG. 2C).
A high-throughput assay capable of identifying test compounds that specifically impaired or enhanced CD8^+ T cell-mediated killing of target ID8-lucOS “clone B9” cells in an antigen-specific manner was developed, as depicted in FIG. 2B. In such assays, a 96-well tissue culture plate array format was employed, and in each well, 10,000 ID8-lucOS and 10,000 ID8-rluc were co-plated. […] The OT-I assay was then performed as a high-throughput screen (FIG. 2C) to evaluate test compounds for immunomodulatory effects upon antigen-specific tumor cell killing by cytotoxic T lymphocytes (CTLs). Inclusion of ID8-lucOS and ID8-rluc in each well of the array-formatted test compound assay provided in-plate normalization controls, which allowed for identification of test compounds that effected non-specific growth inhibition or induction of apoptosis, versus identification of modulation by screen compounds of antigen-specific tumor cell killing by cytotoxic T lymphocytes. Such high-throughput screening was performed under standard ID8 cell growth conditions (37° C. and 5% 02) for initial rounds of test compound screening. […]

[2] = test system: IFN-γ secretion by OT-I CD8+ T cells; assay: OT-I IFN-γ ELISA; format: cell-based, mouse; details: supernatants at 48 hr; 100, 50, 10, 5, 1 nM; E:T 1:1 and 2:1
Method: The supernatants from OT-I CTL assays, as described above, were harvested at the 48 hr timepoint prior to dual luciferase assay and analyzed for IFN-γ secretion by LEGEND MAX™ Mouse IFN-γ ELISA Kit (Biolegend, San Diego, Calif.) according to the manufacturer's protocol. […] Conditions were assayed with four replicate wells per experiment.
Cell culture media from the OT-I IO assay was harvested from wells following 48 hr of culture with a range of EGFR inhibitors and the JAK2 inhibitor AZD-1480 and assessed for IFN-γ levels by ELISA. Secretion of IFN-γ was used as a proxy for OT-I T cell effector function. […] None of the EGFR inhibitors affected IFN-γ secretion, leading to the conclusion that the immunomodulatory effect of EGFR inhibition in the assay was not due to T cell-intrinsic effects.

[3] = test system: MHC class-I (H-2K^b) on ID8 tumor cells; assay: Flow cytometry of MHC class-I expression, ID8; format: cell-based, mouse; details: 100 nM, 48 hr, vs DMSO; for basal expression of MHC class-I by ID8 tumor cells: no IFN-γ; for MHC class-I expression induced by physiological levels of IFN-γ, ID8 tumor cells: with recombinant mouse IFN-γ
Method: 100,000 ID8-lucOS, ID8-lucOS sgEGFR KO, Kras^G12D;p53^−/−, and MC38 cell lines were cultured in 12-well plates in 2 mL of culture media (DMEM+10% FBS+pen/strep) alone or supplemented with 4 ng/mL recombinant mouse IFN-γ (Biolegend, San Diego, Calif.) for 48 hr. […] Data were analyzed using FlowJo (Ashland, Oreg.) software version 10.0.9.

[4] = test system: OVA-expressing KP cells (Kras^G12D/p53^−/− lung adenocarcinoma) co-cultured with OT-I CD8+ T cells; details: KP-Cas9 lucOS cells co-cultured with OT-I CD8+ T cells
From the text: The KP cell line was transduced with the same vectors to stably express Cas9 and the lusOS construct and co-cultured with OT-I CD8+ T cells.

r/m SCCHN = r/m SCCHN patients; cited from earlier work
[5] = biological target: chicken ovalbumin residues 257-264 (SIINFEKL) in the context of H-2Kb, presented on ID8-lucOS cells (mouse; chicken); assay: cell-based or functional assay
MC38 colon cancer cells = format: in vivo; details: log-rank Mantel-Cox
Method: C57BL/6J stock #000664 mice (Jackson labs, Bar Harbor, Me.) were challenged subcutaneously with 500,000 MC38 colon cancer cells on their flanks and “enrolled” on-study when tumors reached 50 mm^3. […] Depleting aCD8α was administered two days prior to first aPD-1 treatment. Mice used in experiments were 7-8 weeks of age at time of tumor challenge. Endpoint was considered to be when tumors reached a size of 2000 mm^3 or as mandated by institutional guidelines due to development of necrotic lesions.
Specifically, for each of the experiments, C57BL/6J mice were challenged subcutaneously with 500,000 MC38 colon cancer cells on their flanks and “enrolled” on-study when tumors reached 50 mm^3. […] Flank tumor growth curves were analyzed using two-way ANOVA, bar graphs were analyzed using unpaired Student's t-test, and survival experiments used the log-rank Mantel-Cox test for survival analysis, all indicated with *p<0.05; **p<0.01; ***p<0.001.

## C#Cc1cccc(Nc2ncnc3cc(OCCOC)c(OCCOC)cc23)c1 [erlotinib]
[1]
  effect on OT-I T cell killing of ID8-lucOS target cells, dose-response validation: confirmed to augment T cell-mediated tumor cell lysis
  effect on OT-I T cell-mediated target cell lysis (normalized firefly/renilla luciferase ratio relative to DMSO): significantly augmented T cell killing
[2]
  IFN-γ secretion (ELISA): did not appear to exert any enhancing effect
[3]
  basal expression of MHC class-I by ID8 tumor cells: significantly increased
  MHC class-I expression induced by physiological levels of IFN-γ, ID8 tumor cells: significantly increased
[4]
  OT-I T cell-mediated lysis of OVA-expressing KP cells: significantly enhanced

## COc1cc2ncnc(Nc3ccc(F)c(Cl)c3)c2cc1OCCCN1CCOCC1 [gefitinib]
[1]
  effect on OT-I T cell killing of ID8-lucOS target cells, dose-response validation: significantly augmented OT-I T cell killing
[2]
  IFN-γ secretion (ELISA): did not appear to exert any enhancing effect
[3]
  basal expression of MHC class-I by ID8 tumor cells: significantly increased
  MHC class-I expression induced by physiological levels of IFN-γ, ID8 tumor cells: significantly increased
[4]
  OT-I T cell-mediated lysis of OVA-expressing KP cells: significantly enhanced

## CC(C)(C)c1cnc(CSc2cnc(NC(=O)C3CCNCC3)s2)o1 [SNS-032]
[1]
  effect on OT-I T cell-mediated target cell lysis (normalized firefly/renilla luciferase ratio relative to DMSO): inhibited T cell-mediated target cell lysis

## O=C1Nc2ccccc2/C1=C1/Nc2ccccc2C1=O [indirubicin]
[1]
  effect on OT-I T cell killing of ID8-lucOS target cells, dose-response validation: only mildly immunomodulatory

## CN1C(=O)c2ccccc2N(C)c2nc(Nc3ccc(N4CCC(O)CC4)cc3)ncc21 [XMD-12-1]
[1]
  effect on OT-I T cell-mediated target cell lysis (normalized firefly/renilla luciferase ratio relative to DMSO): inhibited T cell-mediated target cell lysis

## Cc1cc(Nc2nc(N[C@@H](C)c3ncc(F)cn3)ncc2Cl)n[nH]1 [AZD-1480]
[1]
  effect on OT-I T cell killing of ID8-lucOS target cells, dose-response validation: significantly inhibited T cell killing
  effect on OT-I T cell-mediated target cell lysis (normalized firefly/renilla luciferase ratio relative to DMSO): inhibited T cell-mediated target cell lysis
[2]
  IFN-γ secretion (ELISA): significantly inhibited IFN-γ secretion in a dose-dependent manner

## C=CC(=O)Nc1cc(Nc2nccc(-c3cn(C)c4ccccc34)n2)c(OC)cc1N(C)CCN(C)C [osimertinib]
[1]
  effect on OT-I T cell killing of ID8-lucOS target cells, dose-response validation: modestly enhanced killing

## O=C1Nc2cc(Br)ccc2C1=C1Nc2ccccc2C1=O [6-bromoindirubin]
[1]
  effect on OT-I T cell killing of ID8-lucOS target cells, dose-response validation: only modestly augmented T cell killing
  effect on OT-I T cell-mediated target cell lysis (normalized firefly/renilla luciferase ratio relative to DMSO): significantly augmented T cell killing

## COc1cc(OC)c(/C=C/S(=O)(=O)Cc2ccc(OC)c(NCC(=O)O)c2)c(OC)c1 [Rigosertib]
[1]
  effect on OT-I T cell-mediated target cell lysis (normalized firefly/renilla luciferase ratio relative to DMSO): inhibited T cell-mediated target cell lysis

## pembrolizumab
r/m SCCHN
  reported ORR to monotherapy: 16%

## O=c1sn(-c2cccc3ccccc23)c(=O)n1Cc1ccccc1 [tideglusib]
[1]
  effect on OT-I T cell killing of ID8-lucOS target cells, dose-response validation: only mildly immunomodulatory

## OT-I transgenic T cell receptor (TCRα-V2 / TCRβ-V5) on OT-I CD8+ T cells
[5]
  % killing of OVA-expressing ID8-lucOS target cells (dual-luciferase assay, 48 hr): 50 % killing

## O=C(O)c1ccc(Nc2ncc3c(n2)-c2ccc(Cl)cc2C(c2c(F)cccc2F)=NC3)cc1 [MLN8054]
[1]
  effect on OT-I T cell-mediated target cell lysis (normalized firefly/renilla luciferase ratio relative to DMSO): inhibited T cell-mediated target cell lysis

## CN(C)C/C=C/C(=O)Nc1cc2c(Nc3ccc(F)c(Cl)c3)ncnc2cc1O[C@H]1CCOC1 [afatinib]
r/m SCCHN
  reported ORR to monotherapy: 10%
[1]; concentrations down to 10 nM
  lysis of OVA-expressing ID8 target cells: lysis of almost all OVA-expressing ID8 target cells
[1]
  effect on OT-I T cell killing of ID8-lucOS target cells, dose-response validation: significantly augmented OT-I T cell killing
[2]
  IFN-γ secretion (ELISA): did not appear to exert any enhancing effect
[3]
  basal expression of MHC class-I by ID8 tumor cells: significantly increased
  MHC class-I expression induced by physiological levels of IFN-γ, ID8 tumor cells: significantly increased
MC38 colon cancer cells
  survival relative to controls: none
[4]
  OT-I T cell-mediated lysis of OVA-expressing KP cells: significantly enhanced
